PMC6934184, “Selective DNA-PKcs inhibition extends the therapeutic index of localized radiotherapy and chemotherapy” (The Journal of Clinical Investigation, 2019)

Biological target: T1, MAP3K14 (NIK) (Homo sapiens, UniProt Q99558)
T1 construct: purchased Thermo Fisher Scientific (Life Technologies) SelectScreen
Test: SelectScreen LanthaScreen
Type: binding
Conditions: read-out: % displacement
In short: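 Percent values come from Thermo SelectScreen profiling of NU5455, combining activity and binding assays. CSF1R was run in Z'LYTE format at Km app ATP, and CAMK1 in Adapta format with ATP listed at 10.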

T1 sequence (Q99558 whole entry): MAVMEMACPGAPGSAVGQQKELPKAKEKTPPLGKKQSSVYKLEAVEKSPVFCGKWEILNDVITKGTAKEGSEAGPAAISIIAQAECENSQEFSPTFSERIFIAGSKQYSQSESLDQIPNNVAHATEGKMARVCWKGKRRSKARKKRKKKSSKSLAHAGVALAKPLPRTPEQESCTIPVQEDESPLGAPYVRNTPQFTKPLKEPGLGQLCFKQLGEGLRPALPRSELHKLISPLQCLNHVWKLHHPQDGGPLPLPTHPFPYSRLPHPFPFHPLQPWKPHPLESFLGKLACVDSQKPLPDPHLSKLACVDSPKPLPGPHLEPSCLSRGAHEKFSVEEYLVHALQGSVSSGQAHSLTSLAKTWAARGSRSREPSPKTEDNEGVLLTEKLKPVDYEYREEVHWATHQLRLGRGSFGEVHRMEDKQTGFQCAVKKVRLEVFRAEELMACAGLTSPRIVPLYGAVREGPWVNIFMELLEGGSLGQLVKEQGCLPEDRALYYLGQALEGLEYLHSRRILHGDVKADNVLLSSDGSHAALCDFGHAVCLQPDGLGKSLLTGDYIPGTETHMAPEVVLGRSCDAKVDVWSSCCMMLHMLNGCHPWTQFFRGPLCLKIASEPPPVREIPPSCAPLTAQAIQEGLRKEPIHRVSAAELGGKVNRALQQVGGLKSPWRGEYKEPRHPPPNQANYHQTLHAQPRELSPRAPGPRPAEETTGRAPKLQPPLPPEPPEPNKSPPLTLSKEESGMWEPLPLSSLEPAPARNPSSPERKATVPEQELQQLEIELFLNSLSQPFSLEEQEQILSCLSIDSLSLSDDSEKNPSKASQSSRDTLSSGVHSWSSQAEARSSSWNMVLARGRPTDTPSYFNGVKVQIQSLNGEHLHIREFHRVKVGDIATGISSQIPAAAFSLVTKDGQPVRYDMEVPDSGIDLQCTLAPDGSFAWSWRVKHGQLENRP

CN(C(=O)CN1CCOCC1)c1ccc2sc3c(-c4cccc5c(=O)cc(N6CC7CCC(C6)O7)oc45)cccc3c2c1 [NU5455]
inhibition at 1 µM: -0.5%
